In patent US9579314B2 (priority 2015, dated 2017):

Legend:
[1] = biological target: Human M3 receptor (Homo sapiens, UniProt P20309); conditions: read-out: M3 binding affinity
[2] = biological target: Human β2 adrenoceptor (Homo sapiens, UniProt P07550); conditions: read-out: B2 binding affinity
Sequence of Human β2 adrenoceptor (P07550 whole entry): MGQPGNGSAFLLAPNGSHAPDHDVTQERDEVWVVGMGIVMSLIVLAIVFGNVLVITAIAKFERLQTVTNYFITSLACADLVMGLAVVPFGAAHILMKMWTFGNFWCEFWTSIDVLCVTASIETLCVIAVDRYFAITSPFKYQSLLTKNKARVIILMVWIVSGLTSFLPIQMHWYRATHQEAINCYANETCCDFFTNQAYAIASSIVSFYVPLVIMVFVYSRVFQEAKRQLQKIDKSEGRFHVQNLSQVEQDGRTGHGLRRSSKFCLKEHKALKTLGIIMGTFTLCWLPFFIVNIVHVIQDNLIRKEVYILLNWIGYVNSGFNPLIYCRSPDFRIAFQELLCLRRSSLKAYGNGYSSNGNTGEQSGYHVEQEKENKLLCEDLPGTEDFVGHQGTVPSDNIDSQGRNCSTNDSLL

Sequence of Human M3 receptor (P20309 whole entry): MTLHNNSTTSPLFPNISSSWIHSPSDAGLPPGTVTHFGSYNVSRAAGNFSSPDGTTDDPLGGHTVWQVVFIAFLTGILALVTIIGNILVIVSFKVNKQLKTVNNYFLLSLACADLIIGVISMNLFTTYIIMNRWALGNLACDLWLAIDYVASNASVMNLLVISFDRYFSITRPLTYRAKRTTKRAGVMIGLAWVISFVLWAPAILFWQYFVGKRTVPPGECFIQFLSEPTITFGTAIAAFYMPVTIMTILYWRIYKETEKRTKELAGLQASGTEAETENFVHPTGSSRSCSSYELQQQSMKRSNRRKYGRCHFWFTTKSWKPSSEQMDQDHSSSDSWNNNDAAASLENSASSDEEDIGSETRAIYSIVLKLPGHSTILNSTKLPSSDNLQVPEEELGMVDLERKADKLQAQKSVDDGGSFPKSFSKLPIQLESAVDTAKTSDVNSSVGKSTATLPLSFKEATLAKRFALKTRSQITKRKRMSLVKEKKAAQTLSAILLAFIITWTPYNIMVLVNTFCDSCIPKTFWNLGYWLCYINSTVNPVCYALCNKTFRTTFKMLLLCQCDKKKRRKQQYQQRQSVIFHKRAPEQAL

O=C(N[C@H]1CCN(C(=O)COc2cccc([C@](O)(C(=O)OCC3CCN(Cc4ccccc4)CC3)c3ccccc3)c2)C1)c1ccc(CCNC[C@H](O)c2ccc(O)c3[nH]c(=O)ccc23)cc1 [Compound 109, (1-benzylpiperidin-4-yl)methyl (S)-2-hydroxy-2-(3-(2-((S)-3-(4-(2-(((R)-2-hydroxy-2-(8-hydroxy-2-oxo-1,2-dihydroquinolin-5-yl)ethyl)amino)ethyl)benzamido)pyrrolidin-1-yl)-2-oxoethoxy)phenyl)-2-phenylacetate]
IC50 [1]: 0.3 to 3 nM
IC50 [2]: 0.3 to 3 nM

O=C(COc1cccc([C@](O)(C(=O)OCC2CCN(Cc3ccccc3)CC2)c2ccccc2)c1)N[C@H]1C[C@H](NC(=O)c2ccc(CNC[C@H](O)c3ccc(O)c4[nH]c(=O)ccc34)cc2Br)C1 [Compound 136, (1-benzylpiperidin-4-yl)methyl (S)-2-(3-(2-(((1R,3S)-3-(2-bromo-4-((((R)-2-hydroxy-2-(8-hydroxy-2-oxo-1,2-dihydroquinolin-5-yl)ethyl)amino)methyl)benzamido)cyclobutyl)amino)-2-oxoethoxy)phenyl)-2-hydroxy-2-phenylacetate]
IC50 [1]: 0.3 to 3 nM
IC50 [2]: < 0.3 nM

O=C(c1ccc(CNC[C@H](O)c2ccc(O)c3[nH]c(=O)ccc23)cc1)N1C[C@H]2CCN(C(=O)COc3cccc([C@](O)(C(=O)OCC4CCN(Cc5ccccc5)CC4)c4ccccc4)c3)[C@H]2C1 [Compound 74, (1-benzylpiperidin-4-yl)methyl (S)-2-hydroxy-2-(3-(2-((3aR,6aR)-5-(4-((((R)-2-hydroxy-2-(8-hydroxy-2-oxo-1,2-dihydroquinolin-5-yl)ethyl)amino)methyl)benzoyl)hexahydropyrrolo[3,4-b]pyrrol-1(2H)-yl)-2-oxoethoxy)phenyl)-2-phenylacetate]
IC50 [1]: 0.3 to 3 nM
IC50 [2]: 0.3 to 3 nM

Cc1ccc(C(O)(C(=O)OCC2CCN(Cc3ccccc3)CC2)c2cccc(OCCCCCNC[C@H](O)c3ccc(O)c4[nH]c(=O)ccc34)c2)cc1 (stereo partly drawn) [Compound 2, (1-benzylpiperidin-4-yl)methyl 2-hydroxy-2-(3-((5-(((R)-2-hydroxy-2-(8-hydroxy-2-oxo-1,2-dihydroquinolin-5-yl)ethyl)amino)pentyl)oxy)phenyl)-2-(p-tolyl)acetate]
IC50 [1]: 0.3 to 3 nM
IC50 [2]: 0.3 to 3 nM

COc1cc(CNC[C@H](O)c2ccc(O)c3[nH]c(=O)ccc23)ccc1C(=O)NCC(=O)N1CCC(COc2cccc([C@](O)(C(=O)OCC3CCN(Cc4ccccc4)CC3)c3ccccc3)c2)CC1 [Compound 155, (1-benzylpiperidin-4-yl)methyl (S)-2-hydroxy-2-(3-((1-((4-((((R)-2-hydroxy-2-(8-hydroxy-2-oxo-1,2-dihydroquinolin-5-yl)ethyl)amino)methyl)-2-methoxybenzoyl)glycyl)piperidin-4-yl)methoxy)phenyl)-2-phenylacetate]
IC50 [1]: 0.3 to 3 nM
IC50 [2]: < 0.3 nM

COc1cc(C(=O)NCc2ccc(COc3cccc([C@](O)(C(=O)OCC4CCN(Cc5ccccc5)CC4)c4ccccc4)c3)cc2)ccc1CNC[C@H](O)c1ccc(O)c2[nH]c(=O)ccc12 [Compound 42F, (1-benzylpiperidin-4-yl)methyl (S)-2-hydroxy-2-(3-((4-((4-((((R)-2-hydroxy-2-(8-hydroxy-2-oxo-1,2-dihydroquinolin-5-yl)ethyl)amino)methyl)-3-methoxybenzamido)methyl)benzyl)oxy)phenyl)-2-phenylacetate]
IC50 [1]: 0.3 to 3 nM
IC50 [2]: < 0.3 nM

O=C(COc1cccc([C@](O)(C(=O)OCC2CCN(Cc3ccccc3)CC2)c2ccccc2)c1)N[C@H]1C[C@H](NC(=O)c2ccc(CNC[C@H](O)c3ccc(O)c4[nH]c(=O)ccc34)c(C(F)(F)F)c2)C1 [Compound 138, (1-benzylpiperidin-4-yl)methyl (S)-2-hydroxy-2-(3-(2-(((1R,3S)-3-(4-((((R)-2-hydroxy-2-(8-hydroxy-2-oxo-1,2-dihydroquinolin-5-yl)ethyl)amino)methyl)-3-(trifluoromethyl)benzamido)cyclobutyl)amino)-2-oxoethoxy)phenyl)-2-phenylacetate]
IC50 [1]: 0.3 to 3 nM
IC50 [2]: 0.3 to 3 nM

O=C(OCC1CCN(Cc2ccccc2)CC1)C(O)(c1cccc(OCCCCCNC[C@H](O)c2ccc(O)c3[nH]c(=O)ccc23)c1)c1cccs1 (stereo partly drawn) [Compound 9, (1-benzylpiperidin-4-yl)methyl 2-hydroxy-2-(3-((5-(((R)-2-hydroxy-2-(8-hydroxy-2-oxo-1,2-dihydroquinolin-5-yl)ethyl)amino)pentyl)oxy)phenyl)-2-(thiophen-2-yl)acetate]
IC50 [1]: 0.3 to 3 nM
IC50 [2]: < 0.3 nM

O=C(COc1cccc([C@](O)(C(=O)OCC2CCN(Cc3ccccc3)CC2)c2ccccc2)c1)N1CCC2(CC1)CCN(C(=O)c1ccc(CCNC[C@H](O)c3ccc(O)c4[nH]c(=O)ccc34)cc1)CC2 [Compound 95, (1-benzylpiperidin-4-yl)methyl (S)-2-hydroxy-2-(3-(2-(9-(4-(2-(((R)-2-hydroxy-2-(8-hydroxy-2-oxo-1,2-dihydroquinolin-5-yl)ethyl)amino)ethyl)benzoyl)-3,9-diazaspiro[5.5]undecan-3-yl)-2-oxoethoxy)phenyl)-2-phenylacetate]
IC50 [1]: < 0.3 nM
IC50 [2]: < 0.3 nM

O=C(c1ccc(COc2cccc([C@](O)(C(=O)OCC3CCN(Cc4ccccc4)CC3)c3ccccc3)c2)cc1)N1CCC2(CC1)CN(C(=O)c1ccc(CCNC[C@H](O)c3ccc(O)c4[nH]c(=O)ccc34)cc1)C2 [Compound 119, (1-benzylpiperidin-4-yl)methyl (S)-2-hydroxy-2-(3-((4-(2-(4-(2-(((R)-2-hydroxy-2-(8-hydroxy-2-oxo-1,2-dihydroquinolin-5-yl)ethyl)amino)ethyl)benzoyl)-2,7-diazaspiro[3.5]nonane-7-carbonyl)benzyl)oxy)phenyl)-2-phenylacetate]
IC50 [1]: < 0.3 nM
IC50 [2]: 0.3 to 3 nM

O=C(COc1cccc([C@](O)(C(=O)OCC2CCN(Cc3ccccc3)CC2)c2ccccc2)c1)N[C@H]1C[C@H](NC(=O)c2ccc(CCNC[C@H](O)c3ccc(O)c4[nH]c(=O)ccc34)cc2)C1 [Compound 88, (1-benzylpiperidin-4-yl)methyl (S)-2-hydroxy-2-(3-(2-(((1R,3S)-3-(4-(2-(((R)-2-hydroxy-2-(8-hydroxy-2-oxo-1,2-dihydroquinolin-5-yl)ethyl)amino)ethyl)benzamido)cyclobutyl)amino)-2-oxoethoxy)phenyl)-2-phenylacetate]
IC50 [1]: < 0.3 nM
IC50 [2]: 0.3 to 3 nM

CC(C)Oc1cc(C(=O)N[C@H]2C[C@H](NC(=O)COc3cccc([C@](O)(C(=O)OCC4CCN(Cc5ccccc5)CC4)c4ccccc4)c3)C2)ccc1CNC[C@H](O)c1ccc(O)c2[nH]c(=O)ccc12 [Compound 143, (1-benzylpiperidin-4-yl)methyl (S)-2-hydroxy-2-(3-(2-(((1R,3S)-3-(4-((((R)-2-hydroxy-2-(8-hydroxy-2-oxo-1,2-dihydroquinolin-5-yl)ethyl)amino)methyl)-3-isopropoxybenzamido)cyclobutyl)amino)-2-oxoethoxy)phenyl)-2-phenylacetate]
IC50 [1]: 0.3 to 3 nM
IC50 [2]: 0.3 to 3 nM

O=C(COc1cccc([C@](O)(C(=O)OCC2CCN(Cc3ccccc3)CC2)c2ccccc2)c1)N[C@H]1CCN(C(=O)c2ccc(CNC[C@H](O)c3ccc(O)c4[nH]c(=O)ccc34)cc2)C1 [Compound 70, (1-benzylpiperidin-4-yl)methyl (S)-2-hydroxy-2-(3-(2-(((S)-1-(4-((((R)-2-hydroxy-2-(8-hydroxy-2-oxo-1,2-dihydroquinolin-5-yl)ethyl)amino)methyl)benzoyl)pyrrolidin-3-yl)amino)-2-oxoethoxy)phenyl)-2-phenylacetate]
IC50 [1]: 0.3 to 3 nM
IC50 [2]: 0.3 to 3 nM

O=C(c1cccc(COc2cccc([C@](O)(C(=O)OCC3CCN(Cc4ccccc4)CC3)c3ccccc3)c2)c1)N1CCC(CNC[C@H](O)c2ccc(O)c3[nH]c(=O)ccc23)CC1 [Compound 35, (S)-(1-benzylpiperidin-4-yl)methyl 2-hydroxy-2-(3-((3-(4-((((R)-2-hydroxy-2-(8-hydroxy-2-oxo-1,2-dihydroquinolin-5-yl)ethyl)amino)methyl)-piperidine-1-carbonyl)benzyl)oxy)phenyl)-2-phenylacetate]
IC50 [1]: < 0.3 nM
IC50 [2]: < 0.3 nM

O=C(c1ccc(CNC[C@H](O)c2ccc(O)c3[nH]c(=O)ccc23)cc1)N1CC(COc2cccc([C@](O)(C(=O)OCC3CCN(Cc4ccccc4)CC3)c3ccccc3)c2)C1 [Compound 41, (S)-(1-benzylpiperidin-4-yl)methyl 2-hydroxy-2-(3-((1-(4-((((R)-2-hydroxy-2-(8-hydroxy-2-oxo-1,2-dihydroquinolin-5-yl)ethyl)amino)methyl)-benzoyl)azetidin-3-yl)methoxy)phenyl)-2-phenylacetate]
IC50 [1]: 0.3 to 3 nM
IC50 [2]: 0.3 to 3 nM

O=C(OCC1CCN(Cc2ccccc2)CC1)[C@](O)(c1ccccc1)c1cccc(OCCCCCNC[C@H](O)c2ccc(O)c3[nH]c(=O)ccc23)c1 [Compound 13, (S)-(1-Benzylpiperidin-4-yl)methyl 2-hydroxy-2-(3-((5-(((R)-2-hydroxy-2-(8-hydroxy-2-oxo-1,2-dihydroquinolin-5-yl)ethyl)amino)pentyl)oxy)phenyl)-2-phenylacetate]
IC50 [1]: < 0.3 nM
IC50 [2]: < 0.3 nM

O=C(NC1CCN(C(=O)COc2cccc([C@](O)(C(=O)OCC3CCN(Cc4ccccc4)CC3)c3ccccc3)c2)CC1)c1ccc(CNC[C@H](O)c2ccc(O)c3[nH]c(=O)ccc23)cc1 [Compound 59, (1-benzylpiperidin-4-yl)methyl (S)-2-hydroxy-2-(3-(2-(4-(4-((((R)-2-hydroxy-2-(8-hydroxy-2-oxo-1,2-dihydroquinolin-5-yl)ethyl)amino)methyl)benzamido)piperidin-1-yl)-2-oxoethoxy)phenyl)-2-phenylacetate]
IC50 [1]: 0.3 to 3 nM
IC50 [2]: < 0.3 nM

O=C(COc1cccc([C@](O)(C(=O)OCC2CCN(Cc3ccccc3)CC2)c2ccccc2)c1)N[C@H]1C[C@H](NC(=O)c2ccc(CNC[C@H](O)c3ccc(O)c4[nH]c(=O)ccc34)c(Cl)c2)C1 [Compound 135, (1-benzylpiperidin-4-yl)methyl (S)-2-(3-(2-(((1R,3S)-3-(3-chloro-4-((((R)-2-hydroxy-2-(8-hydroxy-2-oxo-1,2-dihydroquinolin-5-yl)ethyl)amino)methyl)benzamido)cyclobutyl)amino)-2-oxoethoxy)phenyl)-2-hydroxy-2-phenylacetate]
IC50 [1]: 0.3 to 3 nM
IC50 [2]: < 0.3 nM
